Measurements published in patent publication US5407918A, “16-membered macrolide derivatives and process for producing the same” (Meiji Seika Kaisha, Ltd., priority 1992, dated 1995).
In brackets after ≈: the same amount, converted by molar mass. Entries after “also recorded” stand apart in the source; their conditions may differ.

Experiments:
Mycoplasma = assay: anti-Mycoplasma activity (summary in words); format: cell-based
Procedure: Antimicrobial activities of the compounds of the present invention were determined by measuring minimum inhibitory concentration (MIC). Minimum inhibitory concentration was determined by the agar plate dilution method in the following manner.
Test strains were subjected to seed culture using Sensitivity test broth (STB, Nissui Pharmaceutical) except that the strains belonging to the genus Streptococcus, Branhamella and Haemophilus were cultured on blood agar plate. A 5 μl portion of cell suspension of the test strains having about 10^6 CFU/ml was inoculated into Sensitivity disk agar (SDA, Nissui Pharmaceutical) supplemented with 5% horse blood and incubated at 37° C. for 20 hours. Then, MIC was measured. For comparison, MDM and leucomycin A7 (LM-A7) was also tested.

[1] = test system: Gram-positive bacteria and Mycoplasma; assay: antimicrobial activity in vitro (summary in words); format: cell-based; conditions: from Table 1
In short: (§1)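 MIC is the value read after 20 hours at 37° C on compound-containing Sensitivity disk agar supplemented with 5% horse blood. Each plate receives a 5 μl spot of cell suspension near 10^6 CFU/ml, prepared from broth seed cultures or, for Branhamella, blood agar cultures.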

S. aureus 209P JC-1 = assay: MIC, agar plate dilution method; format: cell-based; conditions: Staphylococcus aureus; S. aureus 209P JC-1; 37° C., 20 hours; read-out: Antimicrobial activity (MIC)
In short: as §1

H. influenzae 9334 = assay: MIC, agar plate dilution method; format: cell-based; conditions: Haemophilus influenzae; H. influenzae 9334; 37° C., 20 hours; read-out: Antimicrobial activity (MIC)
In short: (§2)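 Using blood-supplemented (5% horse) Sensitivity disk agar, we inoculated 5 μl spots of ~10^6 CFU/ml cultures and scored MIC after incubating 20 hours at 37° C. Broth seed cultures served most strains; Branhamella came from blood agar.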

S. Pyogenes Cook = assay: MIC, agar plate dilution method; format: cell-based; conditions: Streptococcus pyogenes, 37° C., 20 hours, read-out: Antimicrobial activity (MIC)
In short: as §2

K. pneumoniae PC1602 = assay: MIC, agar plate dilution method; format: cell-based; conditions: Klebsiella pneumoniae, 37° C., 20 hours, read-out: Antimicrobial activity (MIC)
In short: as §1

S. aureus MS15009/pMS99 = assay: MIC, agar plate dilution method; format: cell-based; conditions: Staphylococcus aureus, MS15009/PMS99, 20 h, read-out: Antimicrobial activity (MIC)
In short: (§3)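 Agar plate dilution on Sensitivity disk agar with 5% horse blood; 5 μl inoculum of about 10^6 CFU/ml, Branhamella precultured on blood agar. MIC read after 20 hours at 37° C.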

E. faecalis W-73 = assay: MIC, agar plate dilution method; format: cell-based; conditions: Enterococcus faecalis, W73; E. faecalis W-73; 37° C., 20 hours; read-out: Antimicrobial activity (MIC)
In short: as §1

M. pneumoniae Numata = assay: MIC, agar plate dilution method; format: cell-based; conditions: Mycoplasmoides pneumoniae, 20 h, read-out: Antimicrobial activity (MIC)
In short: as §1

S. pneumoniae IP692 = assay: MIC, agar plate dilution method; format: cell-based; conditions: Streptococcus pneumoniae; S. pneumoniae IP692; 37° C., 20 hours; read-out: Antimicrobial activity (MIC)
In short: as §2

S. aureus MS15027 = assay: MIC, agar plate dilution method; format: cell-based; conditions: Staphylococcus aureus, 37° C., 20 hours, read-out: Antimicrobial activity (MIC)
In short: as §1

M. luteus ATCC9341 = assay: MIC, agar plate dilution method; format: cell-based; conditions: Micrococcus luteus; M. luteus ATCC9341; 37° C., 20 hours; read-out: Antimicrobial activity (MIC)
In short: as §1

S. aureus M133 = assay: MIC, agar plate dilution method; format: cell-based; conditions: Staphylococcus aureus, 37° C., 20 hours, read-out: Antimicrobial activity (MIC)
In short: as §1

S. aureus M126 = assay: MIC, agar plate dilution method; format: cell-based; conditions: Staphylococcus aureus; S. aureus M126; 37° C., 20 hours; read-out: Antimicrobial activity (MIC)
In short: as §1

M. pneumoniae FH-P24 = assay: MIC, agar plate dilution method; format: cell-based; conditions: Mycoplasmoides pneumoniae, FHP24, 20 h, read-out: Antimicrobial activity (MIC)
In short: as §3

S. Pneumoniae Type 1 = assay: MIC, agar plate dilution method; format: cell-based; conditions: Streptococcus pneumoniae; S. Pneumoniae Type 1; 37° C., 20 hours; read-out: Antimicrobial activity (MIC)
In short: as §2

E. coli NIHJ JC-2 = assay: MIC, agar plate dilution method; format: cell-based; conditions: Escherichia coli, NIHJJC2, 20 h, read-out: Antimicrobial activity (MIC)
In short: as §1

M. pneumoniae Mac = assay: MIC, agar plate dilution method; format: cell-based; conditions: Mycoplasmoides pneumoniae, 20 h, read-out: Antimicrobial activity (MIC)
In short: as §1

S. aureus MS15026 = assay: MIC, agar plate dilution method; format: cell-based; conditions: Staphylococcus aureus, 37° C., 20 hours, read-out: Antimicrobial activity (MIC)
In short: as §1

B. catarrhalis W-0506 = assay: MIC, agar plate dilution method; format: cell-based; conditions: Moraxella catarrhalis, W0506, 37° C., 20 hours, read-out: Antimicrobial activity (MIC)
In short: as §1

M. pneumoniae FH = assay: MIC, agar plate dilution method; format: cell-based; conditions: Mycoplasmoides pneumoniae, 20 h, read-out: Antimicrobial activity (MIC)
In short: as §1

B. catarrhalis W-0500 = assay: MIC, agar plate dilution method; format: cell-based; conditions: Moraxella catarrhalis, W0500, 37° C., 20 hours, read-out: Antimicrobial activity (MIC)
In short: as §1

S. epidermidis ATCC14990 = assay: MIC, agar plate dilution method; format: cell-based; conditions: Staphylococcus epidermidis, 37° C., 20 hours, read-out: Antimicrobial activity (MIC)
In short: as §1

S. aureus MS15009/pMS98 = assay: MIC, agar plate dilution method; format: cell-based; conditions: Staphylococcus aureus, MS15009/PMS98, 20 h, read-out: Antimicrobial activity (MIC)
In short: as §3

[2] = concentration in serum after oral administration to mice, bioassay; format: in vivo, mice (Jcl:ICR); conditions: for Cmax: mouse, serum, 200 mg/kg, M. luteus bioassay, read-out: maximum concentration in the serum
In short: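 Male 4-week-old Jcl:ICR mice dosed orally with compound suspended in 0.2% CMC (4 mg/ml, 1 ml; another compound at 200 mg/kg). Serum sampled 30-360 min (n=2), diluted 1:1 in CH3CN-phosphate pH 7.0; concentration measured by M. luteus ATCC9341 agar-well bioassay (32 °C, 18 h) against a calibration curve.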

[3] = recovery in urine after oral administration to mice, bioassay; format: in vivo; conditions: for dose excreted at 24 h: mouse, 200 mg/kg oral (compound (3)), urine 4 and 24 hours
Procedure: Subsequently, 200 mg/kg of the compound (3) was orally administered to three mice in the same manner as described above.
The three mice were put in a metabolic cage MM type (Sugiyamagen Company, Tokyo, Japan) and urine was collected 4 and 24 hours after the administration of the test compound. The collected urine was filtered through a filter having a pore size of 0.45 μm (Millipore) and was mixed with an equivalent volume of 50% CH3CN-50 mM phosphate (1:1 by volume) buffer (pH 6.5) to serve as a urine sample. The bioassay was carried out in the same manner as described above to determine the concentration of the test compound in the urine sample. The recovering in the urine was calculated according to the following equation. [formula]

metabolism in plasma = format: in vitro ADME, rat; conditions: no free hydroxyl group in the neutral sugar moiety formed
Procedure: Each test compound and 50 μl of a methanol solution (10,000 γ) were added to 950 μl of thawed rat plasma and the resulting mixture was incubated at 37° C. for 24 hours. After completion of the incubation, a 20 μl portion of the mixture was added to 980 μl of 0.05M phosphate buffer (pH 7.6). A 20 μl portion of the sample solution was used to measure antimicrobial activity against M. luteus. Separately, the calibration curve was prepared by using a methanol solution containing each test compound. The starting activity of each compound in the plasma was referred to as 100%.

[4] = Yakugaku Zasshi, 102 (8), 781 (1982); cited from earlier work
esterase = conditions: in vivo; cited from earlier work
[5] = oral, man and dog; cited from earlier work
[6] = Journal of Antibiotics, 36 (4), 442 (1983); cited from earlier work

## CCC(=O)O[C@@H]1CC(=O)O[C@H](C)C/C=C/C=C/[C@H](O)[C@H](C)C[C@H](CC=O)[C@H](O[C@@H]2O[C@H](C)[C@@H](O[C@H]3C[C@@](C)(OC)[C@@H](OCCC(C)C)[C@H](C)O3)[C@H](N(C)C)[C@H]2O)[C@H]1OC [(3), 4"-O-depropionyl-4"-O-isoamyl-3"-O-methylmidecamycin A1]
Mycoplasma
  anti-Mycoplasma activity: practically effective anti-Mycoplasma activity
[1]
  antimicrobial activities compared with MDM: comparable to, or even exceeding, that of MDM
  antimicrobial activities on Gram-positive bacteria and Mycoplasma: strong antimicrobial activities
S. aureus 209P JC-1
  MIC: 0.2 mg/L (≈ 0.238 µM)
H. influenzae 9334
  MIC: 6.25 mg/L (≈ 7.42 µM)
S. Pyogenes Cook
  MIC: 0.1 mg/L (≈ 0.119 µM)
K. pneumoniae PC1602
  MIC: > 100 mg/L
S. aureus MS15009/pMS99
  MIC: > 100 mg/L
E. faecalis W-73
  MIC: 3.13 mg/L (≈ 3.72 µM)
M. pneumoniae Numata
  MIC: 0.025 mg/L (≈ 0.0297 µM)
S. pneumoniae IP692
  MIC: 0.1 mg/L (≈ 0.119 µM)
S. aureus MS15027
  MIC: 0.78 mg/L (≈ 0.926 µM)
M. luteus ATCC9341
  MIC: 0.05 mg/L (≈ 0.0594 µM)
S. aureus M133
  MIC: 0.78 mg/L (≈ 0.926 µM)
S. aureus M126
  MIC: > 100 mg/L
M. pneumoniae FH-P24
  MIC: 0.025 mg/L (≈ 0.0297 µM)
S. Pneumoniae Type 1
  MIC: 0.2 mg/L (≈ 0.238 µM)
E. coli NIHJ JC-2
  MIC: > 100 mg/L
M. pneumoniae Mac
  MIC: 0.05 mg/L (≈ 0.0594 µM)
S. aureus MS15026
  MIC: > 100 mg/L
B. catarrhalis W-0506
  MIC: 1.56 mg/L (≈ 1.85 µM)
M. pneumoniae FH
  MIC: 1.56 mg/L (≈ 1.85 µM)
B. catarrhalis W-0500
  MIC: 0.78 mg/L (≈ 0.926 µM)
S. epidermidis ATCC14990
  MIC: 1.56 mg/L (≈ 1.85 µM)
S. aureus MS15009/pMS98
  MIC: 0.78 mg/L (≈ 0.926 µM)
[2]
  pharmacokinetics in mice (in words): excellent pharmacokinetics
  Cmax: 11.3 µg/mL
[2]; versus clarythromycin (CAM) or other 16-membered macrolides
  maximum concentration in the serum, comparison in words: comparable to that of clarythromycin (CAM); also recorded: considered the highest one among 16-membered macrolide compounds having a free hydroxyl group at the 9-position
M. luteus
  degree of loss of the antimicrobial activity in the plasma compared with MOM: lower than that of MOM
[3]
  stability in the living mouse body (sustaining the antimicrobial activity): highly stable
  dose excreted at 24 h: 20%
[3]; 200 mg/kg oral
  recovery in the urine compared with CAM: slightly lower than that of CAM
Metabolism in plasma
  extent of metabolism: hardly metabolized

## CCC(=O)O[C@@H]1CC(=O)O[C@H](C)C/C=C/C=C/[C@H](OC(C)=O)[C@H](C)C[C@H](CC=O)[C@H](O[C@@H]2O[C@H](C)[C@@H](O[C@H]3C[C@@](C)(OC(C)=O)[C@@H](OC(=O)CC)[C@H](C)O3)[C@H](N(C)C)[C@H]2O)[C@H]1OC [MOM, miokamycin, reference compound]
[4]
  metabolic pattern of the mycarose moiety in human compared with rat: almost the same as that in rat
[2]
  Cmax: 6.2 µg/mL
esterase
  metabolism of the two acyl groups in the neutral sugar moiety: removed with esterase in vivo
[3]
  dose excreted at 24 h: < 2%

## CCCC(=O)O[C@H]1[C@H](C)O[C@@H](O[C@H]2[C@H](N(C)C)[C@@H](O)[C@H](O[C@H]3[C@@H](CC=O)C[C@@H](C)[C@@H](O)/C=C/C=C/C[C@@H](C)OC(=O)C[C@@H](O)[C@@H]3OC)O[C@@H]2C)C[C@@]1(C)OC(=O)CC [RKM, rokitamycin, reference compound]
[2]
  Cmax: 2.9 µg/mL
esterase
  metabolism of the two acyl groups in the neutral sugar moiety: removed with esterase in vivo
[3]
  dose excreted at 24 h: < 2%
[5]
  major metabolite with a cleaved lactone ring: no compound with a cleaved lactone ring has been reported as a major metabolite

## CO[C@@H]1[C@@H](O[C@@H]2O[C@H](C)[C@@H](O[C@H]3C[C@@](C)(O)[C@@H](O)[C@H](C)O3)[C@H](N(C)C)[C@H]2O)[C@@H](CC=O)C[C@@H](C)[C@@H](O[C@H]2CC[C@H](N(C)C)[C@@H](C)O2)/C=C/C=C/C[C@@H](C)OC(=O)C[C@H]1OC(C)=O [spiramycin II]
[6]
  sustained antimicrobial activity in rat plasma compared with spiramycin I: shows a sustained antimicrobial activity in rat plasma
